Results as given in PMC5403886, “A Novel Spiro-Heterocyclic Compound Identified by the Silkworm Infection Model Inhibits Transcription in Staphylococcus aureus” (Frontiers in Microbiology, 2017).

Molecular target: T1, SigA (primary sigma factor of RNA polymerase) (Staphylococcus aureus, UniProt P0A0J0)
T1 construct: His-tagged recombinant SigA (sigA from S. aureus RN4220, pET28a)
Experiment: pull-down with His-tagged SigA on cobalt magnetic beads, HPLC of eluted compound
Assay type: binding

T1 sequence (P0A0J0 whole entry): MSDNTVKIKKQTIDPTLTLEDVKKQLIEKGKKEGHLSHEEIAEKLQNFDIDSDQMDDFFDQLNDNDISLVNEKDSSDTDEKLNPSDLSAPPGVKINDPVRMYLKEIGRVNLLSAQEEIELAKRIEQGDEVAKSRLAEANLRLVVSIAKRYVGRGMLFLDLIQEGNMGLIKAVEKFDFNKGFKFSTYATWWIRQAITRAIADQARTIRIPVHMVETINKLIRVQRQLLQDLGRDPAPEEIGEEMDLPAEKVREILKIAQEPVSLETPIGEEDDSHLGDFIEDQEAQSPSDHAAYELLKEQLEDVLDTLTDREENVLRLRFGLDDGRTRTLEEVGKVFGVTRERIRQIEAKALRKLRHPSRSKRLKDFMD

For `CCCNC(=O)N1CCC2(CC1)Nc1cc(F)ccc1-n1cccc12` [GPI0363, 7-fluoro-N-propylspiro[5H-pyrrolo[1,2-a]quinoxaline-4,4′-piperidine]-1′-carboxamide], which “pull-down with His-tagged SigA on cobalt magnetic beads, HPLC of eluted compound” value is on record?
Its value is “The peak of GPI0363 appeared when mixed with SigA whereas the peak was not observed when SigA was omitted”.
